Measured values reported in publication PMC6023200, “High content, high-throughput screening for small molecule inducers of NF-κB translocation” (PLoS ONE, 2018).
Like-named read-outs stand apart in the source and are kept apart here.

Tests used:
[1] = test system: NF-κB nuclear translocation in HUVECs; experiment: NF-κB nuclear translocation assay (high content imaging, p65 NUC/CYT); format: cell-based, Human; details: for EC50: Homo sapiens, HUVEC; for NF-κB nuclear translocation in response to different inducers vs negative control (1% DMSO): HUVECs stimulated 30 min, 100 ng/mL LPS, 10 μM PMA, 10 μM prostratin, 10 μM calcimycin
Protocol: HUVEC cells were seeded at 2500 cells/well in 384-well plates in EBM^TM-2 Basal Medium plus 2% FBS overnight at 37°C in a humidified 5% CO2 incubator. Compounds (columns 3–22) and DMSO (columns 1, 2, 23 and 24) were added to cells using a JANUS Automated Liquid Handling Workstation (Perkin Elmer). […] Plates were incubated at 37°C for 30 min in a humidified 5% CO2 incubator following addition of compounds and controls.
All washing and immunofluorescence staining steps were performed using an EL406 Automated Washer Dispenser (Biotek). Briefly, cells were fixed with 4% paraformaldehyde at RT for 15 min. Cells were washed and incubated at RT for 30 min in 0.05% Triton X-100, 0.25% IgG-free BSA, 0.25% normal goat serum in Tris-buffered saline. Cells were stained with the p65 Mouse Monoclonal Primary Antibody (Santa Cruz, sc-8008) at a final concentration of 1 μg/mL in TBS, 0.05% Triton X-100,.25% IgG-free BSA and incubated overnight at 4°C. Cells were washed and stained with the Alexa Fluor 488 Goat anti-Mouse IgG (H+L) cross-adsorbed secondary antibody at a final concentration of 4 μg/mL in TBS, 0.05% TritonX-100, 0.25% IgG-free BSA for 1 hr at RT in the dark. Cells were washed and 1 μg/mL of DAPI added. Plates were sealed and imaged with an ImageXpress Micro XLS High Content Screening System (Molecular Devices) using FITC and DAPI channels at 20X magnification. Nine fields were captured for each well.
Images were analyzed using the MetaXpress software (Molecular Devices) by creating a custom analysis program in the Custom Module Editor. Briefly, DAPI was used to identify the nucleus of the cell and a nuclear mask created. A secondary mask was created by enlarging the nucleus mask to identify the whole cell. The whole cell mask was then overlaid on the nucleus mask to identify the cytoplasm. The average p65 (NF-κB) pixel intensities in both the nucleus and cytoplasm were quantified and a value assigned to each. A translocation value was calculated by determining the ratio of the average nuclei intensity to the average cytoplasmic intensity of p65 (NUC/CYT). For assay development, the Kruskal-Wallis non parametric test was used to compare the medians of the different groups after correcting for multiple comparison with Dunn’s multiple comparison test using GraphPad Prism 7.04 software. For assay validation, the mean (μ), standard deviation (SD) and coefficient of variation (CV) for nuclear translocation were calculated for the maximum (TNF-α) and minimum (DMSO) activation control wells, maximum and minimum activation plates as well as CVs for 320 test wells. The Z’ (measure of spread between maximum and minimum control signals) was calculated for each plate using the formula: Z^′=1−3(SDMax+SDMin)/|μMax−μMin|, where max is average maximum signal and min is average minimum signal. The EC50 was defined as the concentration that gave half the maximal response.

[2] = HepG2 cytotoxicity assay (CellTiter-Glo); details: human, HepG2 cells
Protocol: (§1) Cells were seeded in 384-well plates at 1800 cells per well and incubated in a humidified incubator at 37°C, 5% CO2. Compounds were solubilized in 100% DMSO and assayed using a 10-point three-fold serial dilution. Compounds were added 24 hours post cell seeding to a final assay concentration of 1% DMSO and highest compound concentration of 100 μM. CellTiter-Glo® reagent (Promega) was added to 384-well plates after a 72-hour incubation period. Relative luminescent units (RLU) were measured using a Synergy 4 plate reader (Biotek). Raw data were normalized using the average RLU value from negative control (1% DMSO) and expressed as % growth. Growth inhibition curves were fitted using the Levenberg–Marquardt algorithm. The IC50 was defined as the compound concentration that produced 50% of the growth inhibitory response.

[3] = test system: HepG2 human cell line; experiment: HepG2 cytotoxicity assay (CellTiter-Glo); details: HepG2 IC50 / HUVEC EC50
Protocol: as §1

[4] = in vitro; details: human
Protocol: as §1

[5] = 0.5 h, NF-κB nuclear translocation, 10-point 3-fold dose response from 100 μM, 30 min, mean ± SD of three independent experiments (* N = 2), unit inferred, μM, read-out: EC50 = Activity in HUVECs
[6] = HUVECs, representative curve of three experiments, 4-parameter fit, dose response from 100μM, unit inferred, read-out: EC50 (Fig 8 dose response curve)

Compound	EC50 [1, 5] [µM]	IC50 at 72 h [2] [µM]	selectivity index (SI) = IC50/EC50 [3]	also measured
O=C(/C=C1\C=CS(=O)(=O)C1)c1ccccc1 [IDR-0520796]	5 ± 5.6	6.6 ± 1.6	1.3	–
Cc1cc(OCCCNCCO)cc(C)c1Cl [IDR-0137368]	17 ± 14	19 ± 4.9	1.1	–
Oc1ccccc1/N=C/c1c(O)c(Br)cc2oc3c(c12)CCCC3 [IDR-0139144]	12 ± 10	18 ± 4.2	1.5	–
COC(=O)C1=C(C)OC(N)=C(C#N)C1c1ccc(Cl)c(Cl)c1 (centres unmarked) [IDR-0122120]	6.6 ± 8.1	40 ± 5	6.1	–
O=[N+]([O-])c1ccc(-c2nc(Cl)oc2-c2ccc([N+](=O)[O-])cc2)cc1 [IDR-0515158]	–	86 ± 17	33	EC50 ([1]; 0.5 h, read-out: EC50 = Activity in HUVECs): 2.6 ± 0.53 µM; EC50 ([1]; read-out: EC50 (Fig 8 dose response curve)): 2.2 µM
CN(C)c1ccc(/C=C2\SC(=S)N(N)C2=O)cc1 [IDR-0605186]	15 ± 5.9	> 50	>3.3	–
N#Cc1c(Cl)nc(N2CCOCC2)c(Cl)c1Cl [IDR-0112566]	3.8 ± 1.4	28 ± 0.7	7.4	EC50 [1, 6]: 2.1 µM
CCCCNCCCCOc1ccc2ccccc2c1 [IDR-0137875]	15 ± 3	16 ± 0.71	1.1	–
CC(=O)O[C@@]12C[C@@H](C)[C@@]3(O)[C@@H](C=C(CO)C[C@]4(O)C(=O)C(C)=C[C@@H]34)[C@@H]1C2(C)C [prostratin, reference compound]	–	–	–	NF-κB nuclear translocation in response to different inducers vs negative control (1% DMSO) ([1]; 10 ng/mL TNF-α): no difference
CCCCCCCCCCCCCC(=O)O[C@@H]1[C@@H](C)[C@@]2(O)[C@@H](C=C(CO)C[C@]3(O)C(=O)C(C)=C[C@@H]23)[C@@H]2C(C)(C)[C@]12OC(C)=O [PMA, phorbol myristate acetate, reference compound]	–	–	–	NF-κB nuclear translocation in response to different inducers vs negative control (1% DMSO) ([1]; 10 ng/mL TNF-α): no difference
CNc1ccc2oc(C[C@H]3O[C@@]4(CC[C@H]3C)O[C@H]([C@H](C)C(=O)c3ccc[nH]3)[C@H](C)C[C@H]4C)nc2c1C(=O)O [calcimycin, reference compound]	–	–	–	NF-κB nuclear translocation in response to different inducers vs negative control (1% DMSO) ([1]; 10 ng/mL TNF-α): no difference
O=c1oc2ccccc2c2nn(Cc3ccccc3)nc12 [IDR-0131600]	17 ± 3.7	32 ± 0.7	1.9	–
Cc1cc(C)c2c(N)c(C(=O)c3ccc(Br)cc3)sc2n1 [IDR-0112706]	13 ± 4.5	27 ± 3.5	2.1	–
O=C1NC(=S)SC1=Cc1ccc(O)cc1O [IDR-0133275]	18 ± 1.1	> 100	>5.5	–
TNF-α	–	–	–	NF-κB nuclear translocation in response to different inducers vs negative control (1% DMSO) ([1]; 10 ng/mL TNF-α): most robust NF-κB nuclear translocation; time of maximum NF-κB activation post stimulation ([1]; HUVECs, 10 ng/mL TNF-α, fixed at 15, 30, 45 and 60 min): 30 min; EC50 of NF-κB nuclear translocation ([1]; HUVECs, 10-point 3-fold dilutions from 100 ng/mL, 30 min, across three independent experiments): 0.3 to 0.6 ng/mL
O=C1C(=Cc2ccc(-c3ccc(Cl)cc3)o2)SC(=S)N1Cc1ccco1 [IDR-0518296]	2.4 ± 1.4	17 ± 12	7.1	–
Nc1ccc2c(c1)Cc1cc([N+](=O)[O-])ccc1-2 [IDR-0113345]	8.6 ± 8.9	–	6.3	IC50 [4]: 54 ± 5 µM
COc1ccc(Br)cc1/C=C(\C#N)c1nc2ccc(C)cc2[nH]1 [IDR-0605188]	4.7 ± 3.8	17 ± 13	3.6	–
Cc1nn(-c2ccccc2)c2c1C(c1ccc(Cl)c(Cl)c1)C(C#N)=C(N)O2 (centres unmarked) [IDR-0516961]	25 ± 17	46 ± 18	1.8	–
CCOc1cc(C=C(C#N)c2nc(-c3ccc(OC)cc3)cs2)ccc1O [IDR-0605187]	5.9 ± 3.4	51 ± 31	8.6	EC50 [1, 6]: 3.1 µM
CC(=NNc1nc(Cl)c(C#N)c(Cl)c1Cl)c1ccccn1 [IDR-0112703]	6.3 ± 6	13 ± 5	2.1	–
CCOC(=O)C(Cc1ccccc1)NC(=O)c1ccccc1 (centres unmarked) [IDR-0517069]	10 ± 1.6	> 100	>10	EC50 [1, 6]: 8.1 µM
lipopolysaccharide [LPS, reference compound]	–	–	–	NF-κB nuclear translocation in response to different inducers vs negative control (1% DMSO) ([1]; 10 ng/mL TNF-α): no difference
